Like-named read-outs stand apart in the source and are kept apart here.
Tests used:
Assay type in all cases: cell-based
U87 = test: Figure S6 EC50 comparison, U87 cells + chemokine; settings: U87 cells + the labelled chemokine, titrated agonist not given, read-out: Ec50 (inset, Ec50 comparison)
CXCR7 = target: T1, CXCR7 (Homo sapiens, UniProt P25106); test: Figure S1a: screen of opioid peptides on CXCR7
T1 construct: expressed in transfected cells; host or cells: U87 cells

CXCR4 = target: T2, CXCR4 (Homo sapiens, UniProt P61073)
T2 construct: expressed in transfected cells; host or cells: U87, transient cotransfection of pNBe vectors
T2 sequence (P61073 whole entry): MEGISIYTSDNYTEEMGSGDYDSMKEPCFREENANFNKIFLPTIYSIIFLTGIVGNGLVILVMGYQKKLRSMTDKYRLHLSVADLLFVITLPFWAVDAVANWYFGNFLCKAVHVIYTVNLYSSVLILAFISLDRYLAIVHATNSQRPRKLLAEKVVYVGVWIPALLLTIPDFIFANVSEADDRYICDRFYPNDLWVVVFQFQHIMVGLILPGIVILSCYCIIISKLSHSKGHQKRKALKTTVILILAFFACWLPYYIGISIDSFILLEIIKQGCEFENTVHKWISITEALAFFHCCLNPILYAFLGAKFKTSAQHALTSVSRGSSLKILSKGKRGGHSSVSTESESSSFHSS

[1] = Figure 7g: values after +LIH383, +LIH inverse, +CXCL12, +CXCL10
U87.ACKR3 = test: Figure S6 EC50 comparison, U87.ACKR3 cells + chemokine; settings: U87.ACKR3 cells + the labelled chemokine, titrated agonist not given, read-out: Ec50 (inset, Ec50 comparison)
CXCR3A = target: T3, CXCR3A (Homo sapiens, UniProt P49682); test: Figure S1a: screen of opioid peptides on CXCR3A; settings: replicate 1
T3 construct: expressed in transfected cells; host or cells: U87 cells
T3 sequence (P49682 1-368): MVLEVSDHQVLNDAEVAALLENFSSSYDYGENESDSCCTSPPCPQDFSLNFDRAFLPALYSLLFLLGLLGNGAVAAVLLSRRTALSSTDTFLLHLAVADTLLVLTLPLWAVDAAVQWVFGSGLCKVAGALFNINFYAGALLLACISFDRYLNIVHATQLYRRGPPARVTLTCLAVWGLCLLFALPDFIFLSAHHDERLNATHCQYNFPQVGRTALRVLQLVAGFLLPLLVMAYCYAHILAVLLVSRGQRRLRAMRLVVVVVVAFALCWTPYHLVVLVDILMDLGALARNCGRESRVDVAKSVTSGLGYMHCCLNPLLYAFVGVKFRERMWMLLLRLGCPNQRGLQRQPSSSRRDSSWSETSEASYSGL

[2] = Figure 7f: response to FBS, CXCL12, opioid peptides and LIH383 relative to Medium; settings: Medium about 1
KOR [3] = target: T4, KOR (Homo sapiens, UniProt P41145); test: Figure 6h, KOR, DMSO vs Bafilomycin treatment; parameters: expressed in transfected cells; host or cells: U87 (human glioblastoma); settings: n = 3 or 4 as in cell
T4 sequence (P41145 whole entry): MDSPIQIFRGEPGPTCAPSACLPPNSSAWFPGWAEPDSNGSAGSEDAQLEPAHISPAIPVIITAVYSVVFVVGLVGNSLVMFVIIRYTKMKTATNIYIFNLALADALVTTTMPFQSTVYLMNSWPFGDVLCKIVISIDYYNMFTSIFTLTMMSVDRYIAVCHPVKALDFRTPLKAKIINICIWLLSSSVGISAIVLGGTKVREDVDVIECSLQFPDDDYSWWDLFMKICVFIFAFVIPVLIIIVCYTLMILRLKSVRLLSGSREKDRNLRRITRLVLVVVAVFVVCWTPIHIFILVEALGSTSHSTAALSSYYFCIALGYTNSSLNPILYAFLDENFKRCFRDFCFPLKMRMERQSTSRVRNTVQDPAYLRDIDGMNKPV

KOR [4] = target: T4, KOR; test: Figure 6h, KOR level after ligand with DMSO or Bafilomycin; parameters: expressed in transfected cells; host or cells: U87 (human glioblastoma)

T1 sequence (P25106 whole entry): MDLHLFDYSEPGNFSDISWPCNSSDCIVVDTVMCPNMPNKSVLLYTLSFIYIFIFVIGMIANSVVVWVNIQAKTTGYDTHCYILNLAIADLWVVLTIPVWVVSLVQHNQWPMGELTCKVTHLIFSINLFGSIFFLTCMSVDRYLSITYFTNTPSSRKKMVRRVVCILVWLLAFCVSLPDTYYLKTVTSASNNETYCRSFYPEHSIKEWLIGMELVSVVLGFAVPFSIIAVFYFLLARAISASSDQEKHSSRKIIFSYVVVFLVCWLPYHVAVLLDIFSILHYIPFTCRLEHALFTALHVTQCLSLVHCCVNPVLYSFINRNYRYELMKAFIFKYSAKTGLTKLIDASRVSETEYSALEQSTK

Row | Substance | EC50 (U87; replicate 1) [nM] | EC50 (U87; replicate 2) [nM] | EC50 (U87; replicate 3) [nM] | Figure S1a value, CXCR4 (CXCR4; replicate 1) | Figure S1a value, CXCR4 (CXCR4; replicate 2) | Figure 7g value ([1]; replicate 1) | Figure 7g value ([1]; replicate 2) | Figure 7g value ([1]; replicate 3) | Figure 7g value ([1]; replicate 4) | EC50 (U87.ACKR3; replicate 1) [nM] | EC50 (U87.ACKR3; replicate 2) [nM] | EC50 (U87.ACKR3; replicate 3) [nM] | Figure S1a value, CXCR3A (CXCR3A) | also measured
1 | CXCL10 | 6.8 | 9.32 | 14 | 64.0305 | 102.577 | 43.9358 | 53.1833 | 71.6583 | 66.9981 | 17.2 | 18.1 | 19.3 | 79.87 | Figure S1a value, CXCR7 (CXCR7; replicate 1): 93.7533; Figure S1a value, CXCR7 (CXCR7; replicate 2): 74.5914; EC50 (U87.ACKR3; replicate 4): 29.1 nM
2 | CXCL12 | 2.9 | 11 | 6.04 | 122.173 | 86.6576 | 102.594 | 103.187 | 90.4001 | 88.8058 | 7.39 | 9.3 | 13.1 | 103.792 | Figure 7f value ([2]; replicate 1): 0.8915; Figure 7f value ([2]; replicate 2): 0.9254; Figure 7f value ([2]; replicate 4): 0.9153; EC50 (U87; replicate 4): 5.61 nM; Mean ± SEM (Figure 6h, KOR) (KOR [3]; 'DMSO vs Bafilomycin treatment'): 112,6 ± 3,88, n=4; Mean ± SEM (Figure 6h, KOR) (KOR [3]; first of two columns under 'DMSO vs Bafilomycin treatment' (presumably DMSO)): 107,9 ± 5,673, n=4; KOR level after ligand (Figure 6h) (KOR [4]; Bafilomycin, replicate 1): 115.399; KOR level after ligand (Figure 6h) (KOR [4]; Bafilomycin, replicate 2): 101.029; KOR level after ligand (Figure 6h) (KOR [4]; Bafilomycin, replicate 3): 116.035; KOR level after ligand (Figure 6h) (KOR [4]; Bafilomycin, replicate 4): 117.81; KOR level after ligand (Figure 6h) (KOR [4]; DMSO, replicate 1): 95.0504; KOR level after ligand (Figure 6h) (KOR [4]; DMSO, replicate 3): 120.17; KOR level after ligand (Figure 6h) (KOR [4]; DMSO, replicate 4): 114.207

Reference: article PMC7305236, “The atypical chemokine receptor ACKR3/CXCR7 is a broad-spectrum scavenger for opioid peptides” (Nature Communications, 2020)
